The source of these data is ChEMBL document CHEMBL4808209 (J Med Chem, 2021).

In brackets after ≈: the same amount, converted by molar mass.

In data set [1] the target is Mast/stem cell growth factor receptor Kit (Homo sapiens, UniProt P10721). As to the kind of experiment: Inhibition of c-KIT (unknown origin) incubated for 90 mins in presence of ATP by HTRF assay. On the technique in general: In TR-FRET formats the signal depends on donor and acceptor labels being close together.
The target of data set [2] is Platelet-derived growth factor receptor beta (Homo sapiens, UniProt P09619). As to the kind of experiment: Inhibition of PDGFR-beta (unknown origin) incubated for 90 mins in presence of ATP by HTRF assay.
Sequence of Platelet-derived growth factor receptor beta (P09619 whole entry): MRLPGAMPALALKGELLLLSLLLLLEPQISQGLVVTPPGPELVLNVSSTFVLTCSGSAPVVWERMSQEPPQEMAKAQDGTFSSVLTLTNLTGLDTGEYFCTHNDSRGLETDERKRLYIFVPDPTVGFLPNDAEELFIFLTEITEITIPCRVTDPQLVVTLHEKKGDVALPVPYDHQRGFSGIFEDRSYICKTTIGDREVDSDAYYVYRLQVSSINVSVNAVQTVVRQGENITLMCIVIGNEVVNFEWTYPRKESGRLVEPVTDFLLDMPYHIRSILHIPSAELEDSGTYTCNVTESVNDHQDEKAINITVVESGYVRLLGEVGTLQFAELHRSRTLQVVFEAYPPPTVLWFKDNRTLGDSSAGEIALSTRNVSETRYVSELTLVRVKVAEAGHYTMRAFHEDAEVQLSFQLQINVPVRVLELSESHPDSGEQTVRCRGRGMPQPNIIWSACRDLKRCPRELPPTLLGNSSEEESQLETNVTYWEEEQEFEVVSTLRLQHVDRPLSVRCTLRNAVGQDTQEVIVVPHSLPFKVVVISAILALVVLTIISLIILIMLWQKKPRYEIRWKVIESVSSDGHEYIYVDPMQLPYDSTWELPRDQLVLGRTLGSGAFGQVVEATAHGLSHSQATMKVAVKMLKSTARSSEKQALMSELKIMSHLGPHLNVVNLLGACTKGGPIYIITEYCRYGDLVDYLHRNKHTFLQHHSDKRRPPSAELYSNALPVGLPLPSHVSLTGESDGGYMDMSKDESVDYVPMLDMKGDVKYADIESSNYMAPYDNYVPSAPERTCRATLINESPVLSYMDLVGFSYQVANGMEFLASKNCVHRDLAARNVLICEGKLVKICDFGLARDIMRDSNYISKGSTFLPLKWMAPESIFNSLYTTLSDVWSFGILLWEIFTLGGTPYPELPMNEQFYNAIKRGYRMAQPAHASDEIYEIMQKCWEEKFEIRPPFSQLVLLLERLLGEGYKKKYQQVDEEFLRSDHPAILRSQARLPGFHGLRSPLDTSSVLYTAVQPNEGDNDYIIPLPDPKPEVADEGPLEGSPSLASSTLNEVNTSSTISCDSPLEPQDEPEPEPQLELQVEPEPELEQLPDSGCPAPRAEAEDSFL
In data set [3] the target is High affinity nerve growth factor receptor (Homo sapiens, UniProt P04629). As to the kind of experiment: Inhibition of TRKA (unknown origin) incubated for 90 mins in presence of ATP by HTRF assay.
Sequence of High affinity nerve growth factor receptor (P04629 whole entry): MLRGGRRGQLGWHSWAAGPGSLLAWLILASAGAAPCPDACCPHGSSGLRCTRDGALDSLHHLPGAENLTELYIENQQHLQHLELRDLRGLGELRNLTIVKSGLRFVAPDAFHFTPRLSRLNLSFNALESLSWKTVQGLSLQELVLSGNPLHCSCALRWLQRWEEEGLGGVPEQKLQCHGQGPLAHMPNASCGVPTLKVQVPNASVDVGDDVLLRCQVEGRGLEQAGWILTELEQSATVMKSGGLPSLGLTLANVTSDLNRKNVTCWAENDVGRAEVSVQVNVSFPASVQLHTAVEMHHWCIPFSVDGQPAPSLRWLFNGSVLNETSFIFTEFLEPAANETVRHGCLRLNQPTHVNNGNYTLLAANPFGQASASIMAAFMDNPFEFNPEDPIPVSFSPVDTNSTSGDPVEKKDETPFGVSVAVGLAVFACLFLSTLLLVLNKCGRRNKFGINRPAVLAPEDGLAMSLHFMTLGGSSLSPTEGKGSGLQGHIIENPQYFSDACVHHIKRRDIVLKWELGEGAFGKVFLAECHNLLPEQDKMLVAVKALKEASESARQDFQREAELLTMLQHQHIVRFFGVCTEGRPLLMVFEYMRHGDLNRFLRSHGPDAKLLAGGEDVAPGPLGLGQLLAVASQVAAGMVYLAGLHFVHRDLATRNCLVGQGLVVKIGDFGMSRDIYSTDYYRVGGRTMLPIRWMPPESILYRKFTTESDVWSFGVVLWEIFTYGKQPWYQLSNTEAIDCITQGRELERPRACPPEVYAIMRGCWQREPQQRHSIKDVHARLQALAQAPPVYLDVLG
Data set [4] has as its target Aurora kinase B (Homo sapiens, UniProt Q96GD4). Description: Inhibition of AURKB (unknown origin) incubated for 90 mins in presence of ATP by HTRF assay.
For data set [5], the target named is Vascular endothelial growth factor receptor 2 (Homo sapiens, UniProt P35968). Description: Inhibition of VEGFR2 (unknown origin) incubated for 90 mins in presence of ATP by HTRF assay.
Sequence of Vascular endothelial growth factor receptor 2 (P35968 whole entry): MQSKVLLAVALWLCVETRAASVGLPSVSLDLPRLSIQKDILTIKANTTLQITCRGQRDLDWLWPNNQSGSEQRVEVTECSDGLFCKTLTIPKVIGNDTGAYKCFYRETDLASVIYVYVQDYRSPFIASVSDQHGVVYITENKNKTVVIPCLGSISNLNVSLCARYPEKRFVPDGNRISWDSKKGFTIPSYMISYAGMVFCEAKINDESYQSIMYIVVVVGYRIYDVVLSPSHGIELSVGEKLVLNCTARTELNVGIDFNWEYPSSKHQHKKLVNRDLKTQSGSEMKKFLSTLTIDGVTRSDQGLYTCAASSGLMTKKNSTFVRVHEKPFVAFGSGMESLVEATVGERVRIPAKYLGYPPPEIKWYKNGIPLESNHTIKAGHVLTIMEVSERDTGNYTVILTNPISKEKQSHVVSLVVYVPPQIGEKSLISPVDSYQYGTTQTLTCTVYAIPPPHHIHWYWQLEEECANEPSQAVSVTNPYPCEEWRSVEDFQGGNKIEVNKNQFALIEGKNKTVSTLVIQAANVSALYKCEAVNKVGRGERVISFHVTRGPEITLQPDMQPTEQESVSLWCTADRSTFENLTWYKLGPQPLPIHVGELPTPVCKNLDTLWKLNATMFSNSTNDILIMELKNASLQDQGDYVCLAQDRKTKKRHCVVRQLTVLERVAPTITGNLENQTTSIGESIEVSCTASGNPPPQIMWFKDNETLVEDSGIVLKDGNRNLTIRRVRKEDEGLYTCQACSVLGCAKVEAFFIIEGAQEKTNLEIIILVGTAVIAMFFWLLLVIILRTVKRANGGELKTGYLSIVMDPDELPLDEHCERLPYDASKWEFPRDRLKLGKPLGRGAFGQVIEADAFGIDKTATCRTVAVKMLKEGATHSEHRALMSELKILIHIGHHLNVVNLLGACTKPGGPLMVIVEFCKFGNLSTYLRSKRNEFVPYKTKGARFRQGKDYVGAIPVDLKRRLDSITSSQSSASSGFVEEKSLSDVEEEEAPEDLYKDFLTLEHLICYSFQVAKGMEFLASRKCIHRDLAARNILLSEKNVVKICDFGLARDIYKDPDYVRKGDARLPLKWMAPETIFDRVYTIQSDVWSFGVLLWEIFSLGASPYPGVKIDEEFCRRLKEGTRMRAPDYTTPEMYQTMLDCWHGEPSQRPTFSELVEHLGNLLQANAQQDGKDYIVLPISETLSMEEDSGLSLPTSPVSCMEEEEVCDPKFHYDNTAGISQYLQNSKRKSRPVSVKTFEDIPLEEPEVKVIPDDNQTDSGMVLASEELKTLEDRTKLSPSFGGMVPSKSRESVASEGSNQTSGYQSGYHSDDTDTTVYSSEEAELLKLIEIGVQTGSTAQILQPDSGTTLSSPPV
Data set [6] is described as follows: Inhibition of phosphorylated FGFR2alpha in human KATO III stomach cancer cell line spiked in human whole blood incubated for 4 hrs by ELISA. The format is tissue-based. On the technique in general: ELISA stands for enzyme-linked immunosorbent assay.
Data set [7] is described as follows: Half life in cynomolgus monkey at 2 mg/kg, po or 0.5 mg/kg, iv administered as cassette dose measured after 24 hrs. The format is ADME, organism-based, Macaca fascicularis. As to conditions: in vivo.
Data set [8] can be described thus: Oral bioavailability in Sprague-Dawley rat at 2 mg/kg administered as cassette dose measured after 24 hrs. The format is ADME, organism-based. The conditions noted are these: in vivo.
Data set [9] can be described thus: Clearance in Sprague-Dawley rat at 2 mg/kg, po or 1 mg/kg, iv administered as cassette dose measured after 24 hrs relative to hepatic blood flow. As to conditions: in vivo. Type of data set: ADME, organism-based.
The nature of data set [10]: Solubility of the compound in FaSSIF by HPLC analysis. The format is physicochemical.
Data set [11] in a line: Volume of distribution at steady state in cynomolgus monkey at 2 mg/kg, po or 0.5 mg/kg, iv administered as cassette dose measured after 24 hrs. Type of data set: ADME, organism-based, Macaca fascicularis. As to conditions: in vivo, read-out: Vdss.
The nature of data set [12]: Half life in Sprague-Dawley rat at 2 mg/kg, po or 1 mg/kg, iv administered as cassette dose measured after 24 hrs. The format is ADME, organism-based. As to conditions: in vivo.
Data set [13] is described as follows: Volume of distribution at steady state in Sprague-Dawley rat at 2 mg/kg, po or 1 mg/kg, iv administered as cassette dose measured after 24 hrs. Type of data set: ADME, organism-based. As to conditions: in vivo, read-out: Vdss.
The target of data set [14] is T1, CYP3A4 (Homo sapiens, UniProt P08684). Description: Time dependent inhibition of CYP3A4 in human liver microsomes at 10 uM using midazolam as substrate substrate preincubated for 30 mins in presence of NADPH followed by substrate addition and measured after 8 mins relative to control. Type of data set: ADME. The conditions noted are these: probe midazolam, time 38 min, read-out: TDI. Background: Microsomes from liver hold many membrane-bound enzymes, among them those of drug oxidation.
T1 sequence (P08684 whole entry): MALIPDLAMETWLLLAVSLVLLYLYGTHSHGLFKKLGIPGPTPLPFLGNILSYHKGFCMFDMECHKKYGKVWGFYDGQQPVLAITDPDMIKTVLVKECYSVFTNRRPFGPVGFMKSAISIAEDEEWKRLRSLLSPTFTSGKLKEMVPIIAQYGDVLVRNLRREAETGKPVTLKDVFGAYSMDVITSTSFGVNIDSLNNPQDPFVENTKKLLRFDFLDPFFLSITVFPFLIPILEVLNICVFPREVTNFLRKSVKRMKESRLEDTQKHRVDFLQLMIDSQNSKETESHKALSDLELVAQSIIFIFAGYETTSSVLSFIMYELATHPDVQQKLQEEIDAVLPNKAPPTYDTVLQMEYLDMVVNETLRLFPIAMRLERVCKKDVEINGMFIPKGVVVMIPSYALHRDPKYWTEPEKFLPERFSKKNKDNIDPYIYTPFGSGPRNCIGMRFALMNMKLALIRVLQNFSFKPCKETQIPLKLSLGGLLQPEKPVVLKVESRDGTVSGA

Data set [15] in a line: AUC in Sprague-Dawley rat at 2 mg/kg, po or 1 mg/kg, iv administered as cassette dose measured after 24 hrs. Type of data set: ADME, organism-based. Also noted: time 24 hrs, dose 2 mg/kg. As to conditions: in vivo.
Data set [16] is described as follows: Clearance in cynomolgus monkey at 2 mg/kg, po or 0.5 mg/kg, iv administered as cassette dose measured after 24 hrs relative to hepatic blood flow. The format is ADME, organism-based, Macaca fascicularis. As to conditions: in vivo.
The nature of data set [17]: AUC in cynomolgus monkey at 2 mg/kg, po or 0.5 mg/kg, iv administered as cassette dose measured after 24 hrs. The format is ADME, organism-based, Macaca fascicularis. Also on record: dose 2 mg/kg, time 24 hrs. The conditions noted are these: in vivo.
The nature of data set [18]: Oral bioavailability in cynomolgus monkey at 2 mg/kg administered as cassette dose measured after 24 hrs. The format is ADME, organism-based, Macaca fascicularis. The conditions noted are these: in vivo.
Data set [19] concerns the target T1, CYP3A4. As to the kind of experiment: Time dependent inhibition of CYP3A4 in human liver microsomes at 25 uM using midazolam as substrate substrate preincubated for 30 mins in presence of NADPH followed by substrate addition and measured after 8 mins relative to control. The format is ADME. The conditions noted are these: probe midazolam, time 38 min, read-out: TDI.

Sequence of Aurora kinase B (Q96GD4 whole entry): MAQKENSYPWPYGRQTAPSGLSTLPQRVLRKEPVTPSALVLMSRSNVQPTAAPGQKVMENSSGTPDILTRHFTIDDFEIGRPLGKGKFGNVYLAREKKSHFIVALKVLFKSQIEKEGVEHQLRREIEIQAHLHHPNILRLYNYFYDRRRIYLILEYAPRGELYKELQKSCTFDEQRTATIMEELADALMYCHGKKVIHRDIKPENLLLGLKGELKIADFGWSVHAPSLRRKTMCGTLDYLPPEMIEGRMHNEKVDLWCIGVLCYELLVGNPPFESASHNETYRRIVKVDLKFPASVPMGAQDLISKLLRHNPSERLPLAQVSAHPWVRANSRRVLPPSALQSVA
Sequence of Mast/stem cell growth factor receptor Kit (P10721 whole entry): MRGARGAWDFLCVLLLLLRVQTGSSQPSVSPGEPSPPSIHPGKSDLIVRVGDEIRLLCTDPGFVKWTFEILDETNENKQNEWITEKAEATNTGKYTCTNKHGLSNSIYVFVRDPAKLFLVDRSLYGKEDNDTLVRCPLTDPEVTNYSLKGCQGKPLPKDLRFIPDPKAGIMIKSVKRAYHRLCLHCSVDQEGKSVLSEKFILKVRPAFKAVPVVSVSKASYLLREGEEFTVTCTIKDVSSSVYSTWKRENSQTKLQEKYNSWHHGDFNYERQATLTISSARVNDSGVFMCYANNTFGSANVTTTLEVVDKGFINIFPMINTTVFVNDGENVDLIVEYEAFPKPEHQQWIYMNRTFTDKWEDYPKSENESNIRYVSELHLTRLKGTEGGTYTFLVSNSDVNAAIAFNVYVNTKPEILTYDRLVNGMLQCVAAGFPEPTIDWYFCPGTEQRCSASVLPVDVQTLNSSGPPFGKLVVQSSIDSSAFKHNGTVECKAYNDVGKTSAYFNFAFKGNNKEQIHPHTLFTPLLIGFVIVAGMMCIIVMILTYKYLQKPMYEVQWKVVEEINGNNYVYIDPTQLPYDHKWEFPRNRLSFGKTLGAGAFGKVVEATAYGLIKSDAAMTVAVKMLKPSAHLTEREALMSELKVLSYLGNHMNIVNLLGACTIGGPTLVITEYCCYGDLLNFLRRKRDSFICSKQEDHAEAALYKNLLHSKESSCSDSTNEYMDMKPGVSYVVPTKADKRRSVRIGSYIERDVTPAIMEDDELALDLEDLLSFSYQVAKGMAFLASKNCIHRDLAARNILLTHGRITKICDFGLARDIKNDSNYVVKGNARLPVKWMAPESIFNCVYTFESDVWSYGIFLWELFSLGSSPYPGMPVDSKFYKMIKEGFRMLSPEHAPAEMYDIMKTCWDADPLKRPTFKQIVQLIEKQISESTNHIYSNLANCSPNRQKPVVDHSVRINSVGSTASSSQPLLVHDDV

Turning to `COc1cc(OC)c(F)c(N2Cc3cnc4[nH]c(-c5cnn(C)c5)cc4c3N(C)C2=O)c1F`, the IC50 – broadly, the concentration needed to halve the response being measured – in data set [1] was 3.9 nM; in data set [2] it was 5.7 nM; in data set [3], under 1 nM; in data set [4], 2.5 nM; in data set [5] it was 1.3 nM.
Regarding `CCN1CCN(Cc2cc3c4c(cnc3[nH]2)CN(c2c(F)c(OC)cc(OC)c2F)C(=O)N4C)CC1`, the IC50 in data set [6] is 24 nM. Also, the half-life – broadly, how long it takes for the measured level to halve – in data set [7] is 12 h; in [12], 11.9 h. For the same molecule, the bioavailability – broadly, dose-corrected exposure relative to a reference, in per cent – in [8] stood at 49%; in [18], 26%. For the same molecule, the CL in data set [9] worked out at 51%; in data set [16], 8%. The solubility – broadly, the dissolved amount per volume that the medium holds – in [10] was 942 µg/mL (≈ 1880 µM). In addition, the Vd came to 0.41 L/kg in [11] and 5.12 L/kg in [13]. Besides, the inhibition at 8 min, 10 µM in [14] was found to be 14%. Moreover, the AUC (in general, the area under the concentration-time curve, a measure of exposure) at 24 h was 1.17 µM·h in data set [15] and 5.87 µM·h in [17]. Moreover, the inhibition at 8 min, 25 µM in data set [19] was 45%.
